Values quoted from earlier work in publication PMC7070898 (Clinical and Translational Science, 2019).

Tests used:
[1] = patients receiving acalabrutinib ref 12; cited from earlier work
[2] = target: BTK (Homo sapiens, UniProt Q06187); settings: single dose, cited from earlier work
BTK, sequence (Q06187 whole entry): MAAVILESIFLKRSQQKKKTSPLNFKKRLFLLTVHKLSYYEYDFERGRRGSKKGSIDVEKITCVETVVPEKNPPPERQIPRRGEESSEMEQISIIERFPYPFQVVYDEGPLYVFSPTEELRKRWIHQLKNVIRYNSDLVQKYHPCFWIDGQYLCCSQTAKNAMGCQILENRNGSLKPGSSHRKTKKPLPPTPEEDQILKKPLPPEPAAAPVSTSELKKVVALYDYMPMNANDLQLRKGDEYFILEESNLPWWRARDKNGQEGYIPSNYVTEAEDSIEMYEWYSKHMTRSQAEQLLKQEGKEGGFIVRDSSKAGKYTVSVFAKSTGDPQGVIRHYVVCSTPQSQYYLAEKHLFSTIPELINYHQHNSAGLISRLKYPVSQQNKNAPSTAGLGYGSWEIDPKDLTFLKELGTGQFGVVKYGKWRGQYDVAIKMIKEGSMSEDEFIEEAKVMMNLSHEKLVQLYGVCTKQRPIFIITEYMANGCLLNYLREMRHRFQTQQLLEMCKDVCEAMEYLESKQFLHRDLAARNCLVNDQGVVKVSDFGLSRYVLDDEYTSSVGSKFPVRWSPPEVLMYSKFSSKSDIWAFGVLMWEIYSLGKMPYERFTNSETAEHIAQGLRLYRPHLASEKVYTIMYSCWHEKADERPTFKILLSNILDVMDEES

SMILES	atrial fibrillation/flutter, patients [1]	BTK occupancy ([2]; five of six healthy subjects, ≤ 4 hours after administration ref 21)	duration of complete or near‐complete BTK occupancy ([2]; healthy subjects ref 21)
CC#CC(=O)N1CCC[C@H]1c1nc(-c2ccc(C(=O)Nc3ccccn3)cc2)c2c(N)nccn12 [acalabrutinib]	3%		
C=CC(=O)Nc1cccc(Nc2nc(Nc3ccc(OCCOC)cc3)ncc2F)c1 [CC‐292]		> 98%	8 to 24 h
